IC50 and inhibition data for 21 molecules are collected here from ChEMBL document CHEMBL5120922, “Discovery, Optimization, and Evaluation of Potent and Selective PI3Kδ-γ Dual Inhibitors for the Treatment of B-cell Malignancies” (J Med Chem, 2022).

One assay has as its system DOHH-2. Briefly: Antiproliferative activity against human DOHH-2 cells assessed as cell growth inhibition measured after 72 hrs by MTT assay. It is filed as functional, cell-based. To be noted: DOHH-2, 72 h. In general terms: Tetrazolium assays rely on reduction of a dye to a coloured formazan, in cell work by metabolically active cells.
Assay [1] deals with Phosphatidylinositol 4,5-bisphosphate 3-kinase catalytic subunit alpha isoform (Homo sapiens, UniProt P42336). Briefly: Inhibition of N-terminal His6-tagged recombinant full length human PI3Kalpha expressed in baculovirus infected Sf21 insect cells at 1 uM by HTRF assay relative to control. In general terms: TR-FRET usually uses a lanthanide donor and a delayed reading to cut background.

Assay [2] has as its target T1, Phosphatidylinositol 4,5-bisphosphate 3-kinase catalytic subunit delta isoform (Homo sapiens) (UniProt O00329).
T1 sequence (whole entry): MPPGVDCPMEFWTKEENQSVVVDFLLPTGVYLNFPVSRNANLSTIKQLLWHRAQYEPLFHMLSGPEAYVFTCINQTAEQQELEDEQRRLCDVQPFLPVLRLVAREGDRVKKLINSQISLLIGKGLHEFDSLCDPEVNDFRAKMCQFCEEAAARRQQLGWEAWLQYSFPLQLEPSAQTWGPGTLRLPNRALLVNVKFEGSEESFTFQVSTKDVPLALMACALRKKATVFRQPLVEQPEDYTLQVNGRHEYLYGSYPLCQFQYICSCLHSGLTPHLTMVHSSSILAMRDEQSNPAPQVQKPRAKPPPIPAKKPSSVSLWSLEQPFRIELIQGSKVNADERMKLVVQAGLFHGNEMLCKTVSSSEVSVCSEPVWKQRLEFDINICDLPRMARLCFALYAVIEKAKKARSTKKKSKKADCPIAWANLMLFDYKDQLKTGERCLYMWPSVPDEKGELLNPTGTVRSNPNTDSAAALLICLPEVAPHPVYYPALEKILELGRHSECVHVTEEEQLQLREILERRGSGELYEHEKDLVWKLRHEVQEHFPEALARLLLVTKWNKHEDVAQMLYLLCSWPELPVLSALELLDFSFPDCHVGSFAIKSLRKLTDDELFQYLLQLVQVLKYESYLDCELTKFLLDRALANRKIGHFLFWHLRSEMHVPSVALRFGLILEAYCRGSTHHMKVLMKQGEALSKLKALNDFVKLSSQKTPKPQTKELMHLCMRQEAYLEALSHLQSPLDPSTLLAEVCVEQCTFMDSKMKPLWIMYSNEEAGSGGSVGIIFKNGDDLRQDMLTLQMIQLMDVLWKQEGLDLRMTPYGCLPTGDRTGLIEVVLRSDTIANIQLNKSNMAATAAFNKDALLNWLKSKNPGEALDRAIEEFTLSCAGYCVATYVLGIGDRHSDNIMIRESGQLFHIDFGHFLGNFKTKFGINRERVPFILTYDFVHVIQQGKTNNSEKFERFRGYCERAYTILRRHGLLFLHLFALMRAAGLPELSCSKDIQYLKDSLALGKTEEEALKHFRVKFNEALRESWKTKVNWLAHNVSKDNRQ
Kind of assay: Inhibition of N-terminal His6-tagged recombinant full length human PI3Kdelta expressed in baculovirus infected Sf21 insect cells at 0.1 uM by HTRF assay relative to control.

The target in assay [3] is Phosphatidylinositol 4,5-bisphosphate 3-kinase catalytic subunit beta isoform (Homo sapiens, UniProt P42338). Briefly: Inhibition of N-terminal His6-tagged recombinant full length human PI3Kbeta expressed in baculovirus infected Sf21 insect cells at 1 uM by HTRF assay relative to control.
The test system of another assay is SUD4. Briefly: Antiproliferative activity against human SU-DHL-4 cells assessed as cell growth inhibition measured after 72 hrs by MTT assay. The class given is functional, cell-based. To be noted: SU-DHL-4, 72 h.
For assay [4], the target named is Phosphatidylinositol 4,5-bisphosphate 3-kinase catalytic subunit gamma isoform (Homo sapiens, UniProt P48736). Kind of assay: Inhibition of N-terminal His6-tagged recombinant full length human PI3Kgamma expressed in baculovirus infected Sf21 insect cells at 0.1 uM by HTRF assay relative to control.
The next assay concerns SU-DHL-6. Briefly: Antiproliferative activity against human SU-DHL-6 cells assessed as cell growth inhibition measured after 72 hrs by MTT assay. The class given is functional, cell-based. Conditions: SU-DHL-6, 72 h.

pIC50: −log10 of the molar value.

Phosphatidylinositol 4,5-bisphosphate 3-kinase catalytic subunit beta isoform, sequence (P42338 whole entry, looked up, canonical isoform): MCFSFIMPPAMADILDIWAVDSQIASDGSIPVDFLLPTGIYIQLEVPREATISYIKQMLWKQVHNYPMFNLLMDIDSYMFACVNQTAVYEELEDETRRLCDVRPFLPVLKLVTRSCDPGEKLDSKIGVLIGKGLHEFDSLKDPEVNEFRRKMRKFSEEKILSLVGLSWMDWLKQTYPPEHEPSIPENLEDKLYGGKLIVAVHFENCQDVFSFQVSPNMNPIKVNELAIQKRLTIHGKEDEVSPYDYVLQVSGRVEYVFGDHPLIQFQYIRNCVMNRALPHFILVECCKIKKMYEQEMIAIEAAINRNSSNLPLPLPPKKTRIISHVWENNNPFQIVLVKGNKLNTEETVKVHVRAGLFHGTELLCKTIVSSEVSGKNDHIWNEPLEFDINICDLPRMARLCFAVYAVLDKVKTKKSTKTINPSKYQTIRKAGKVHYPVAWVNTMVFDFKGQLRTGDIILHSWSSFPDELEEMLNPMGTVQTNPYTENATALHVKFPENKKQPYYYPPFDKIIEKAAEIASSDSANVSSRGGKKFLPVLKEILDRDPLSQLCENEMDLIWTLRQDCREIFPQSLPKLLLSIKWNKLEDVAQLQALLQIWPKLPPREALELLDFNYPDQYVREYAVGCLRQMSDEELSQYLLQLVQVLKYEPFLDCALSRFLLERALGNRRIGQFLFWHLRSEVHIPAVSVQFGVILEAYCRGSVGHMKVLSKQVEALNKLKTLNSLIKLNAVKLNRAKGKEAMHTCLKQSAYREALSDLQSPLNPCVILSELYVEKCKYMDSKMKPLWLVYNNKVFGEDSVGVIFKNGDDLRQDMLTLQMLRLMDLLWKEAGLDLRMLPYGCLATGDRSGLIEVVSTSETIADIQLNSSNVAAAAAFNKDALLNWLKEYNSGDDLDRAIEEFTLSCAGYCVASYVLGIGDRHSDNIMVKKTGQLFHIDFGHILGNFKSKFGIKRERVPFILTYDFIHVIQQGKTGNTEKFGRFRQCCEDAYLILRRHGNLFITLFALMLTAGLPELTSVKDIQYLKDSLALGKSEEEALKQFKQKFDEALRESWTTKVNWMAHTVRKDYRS
Phosphatidylinositol 4,5-bisphosphate 3-kinase catalytic subunit gamma isoform, sequence (P48736 whole entry, looked up, canonical isoform): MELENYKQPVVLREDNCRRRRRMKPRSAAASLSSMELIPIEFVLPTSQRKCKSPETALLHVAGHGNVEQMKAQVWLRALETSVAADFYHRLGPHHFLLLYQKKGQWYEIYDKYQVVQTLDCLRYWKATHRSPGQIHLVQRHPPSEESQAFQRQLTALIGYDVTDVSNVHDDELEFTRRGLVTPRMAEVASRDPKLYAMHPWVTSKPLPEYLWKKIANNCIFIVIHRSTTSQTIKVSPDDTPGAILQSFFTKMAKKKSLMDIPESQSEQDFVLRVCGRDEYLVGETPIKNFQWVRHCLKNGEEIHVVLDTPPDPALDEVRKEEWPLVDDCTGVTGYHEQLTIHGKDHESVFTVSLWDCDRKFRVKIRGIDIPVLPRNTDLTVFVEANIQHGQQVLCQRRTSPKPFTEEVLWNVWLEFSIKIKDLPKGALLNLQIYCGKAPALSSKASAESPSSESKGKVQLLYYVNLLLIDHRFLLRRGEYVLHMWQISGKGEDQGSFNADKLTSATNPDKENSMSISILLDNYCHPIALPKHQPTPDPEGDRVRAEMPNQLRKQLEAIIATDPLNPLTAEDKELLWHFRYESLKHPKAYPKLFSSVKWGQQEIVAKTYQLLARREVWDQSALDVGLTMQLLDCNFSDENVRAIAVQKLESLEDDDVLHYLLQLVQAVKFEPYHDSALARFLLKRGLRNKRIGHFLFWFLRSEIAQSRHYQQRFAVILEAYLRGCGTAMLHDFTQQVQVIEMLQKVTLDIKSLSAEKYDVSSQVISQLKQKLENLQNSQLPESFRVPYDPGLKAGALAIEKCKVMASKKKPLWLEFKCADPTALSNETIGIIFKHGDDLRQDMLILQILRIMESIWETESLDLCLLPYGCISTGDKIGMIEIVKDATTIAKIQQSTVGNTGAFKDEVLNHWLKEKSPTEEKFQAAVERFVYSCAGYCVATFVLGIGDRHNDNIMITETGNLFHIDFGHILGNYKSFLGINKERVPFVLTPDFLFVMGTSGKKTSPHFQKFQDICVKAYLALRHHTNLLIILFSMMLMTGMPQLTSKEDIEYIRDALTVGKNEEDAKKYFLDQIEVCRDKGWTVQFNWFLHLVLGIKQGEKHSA
Phosphatidylinositol 4,5-bisphosphate 3-kinase catalytic subunit alpha isoform, sequence (P42336 whole entry, canonical isoform): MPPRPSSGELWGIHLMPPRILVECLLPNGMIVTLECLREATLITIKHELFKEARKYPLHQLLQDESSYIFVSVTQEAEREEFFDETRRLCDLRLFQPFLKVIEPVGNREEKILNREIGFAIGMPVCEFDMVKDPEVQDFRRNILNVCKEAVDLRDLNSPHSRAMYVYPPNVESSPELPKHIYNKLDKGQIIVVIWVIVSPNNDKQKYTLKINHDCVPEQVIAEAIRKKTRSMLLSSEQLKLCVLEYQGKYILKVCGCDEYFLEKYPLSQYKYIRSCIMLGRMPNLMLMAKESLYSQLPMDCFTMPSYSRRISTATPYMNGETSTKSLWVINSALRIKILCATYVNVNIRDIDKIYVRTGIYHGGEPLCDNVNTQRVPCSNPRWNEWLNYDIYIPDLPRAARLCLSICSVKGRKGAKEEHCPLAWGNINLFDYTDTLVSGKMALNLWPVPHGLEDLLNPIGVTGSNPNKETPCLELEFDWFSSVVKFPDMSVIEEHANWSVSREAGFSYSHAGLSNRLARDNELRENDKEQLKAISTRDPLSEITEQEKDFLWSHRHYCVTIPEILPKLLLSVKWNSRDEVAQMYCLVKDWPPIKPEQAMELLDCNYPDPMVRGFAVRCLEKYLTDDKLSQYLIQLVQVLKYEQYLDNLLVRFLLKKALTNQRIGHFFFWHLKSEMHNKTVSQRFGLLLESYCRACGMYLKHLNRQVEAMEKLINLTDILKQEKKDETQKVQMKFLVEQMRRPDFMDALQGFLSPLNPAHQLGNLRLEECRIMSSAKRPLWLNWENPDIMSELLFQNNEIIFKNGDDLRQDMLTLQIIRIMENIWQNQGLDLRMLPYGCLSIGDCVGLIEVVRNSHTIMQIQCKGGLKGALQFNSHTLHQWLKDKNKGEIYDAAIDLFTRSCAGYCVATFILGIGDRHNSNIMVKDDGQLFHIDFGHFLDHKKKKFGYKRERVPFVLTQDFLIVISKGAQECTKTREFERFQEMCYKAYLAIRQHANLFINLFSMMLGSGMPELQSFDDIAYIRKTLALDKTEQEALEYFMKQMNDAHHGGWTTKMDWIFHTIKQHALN

As usually defined, the pIC50 is the negative decadic logarithm of the IC50, by convention in mol/L. The inhibition is the relative decrease from the control value, in per cent. For the molecule `Cc1ccccc1C#Cc1cccc2nc([C@@H]3CC[C@H](C)N3c3nc(N)nc(N)c3C#N)n(-c3ccccc3)c(=O)c12`, the negative-log IC50 (pIC50) in the assay on DOHH-2 is 6.12; with SUD4 it was 5.45; in the assay with SU-DHL-6 it was 5.61. Further, the inhibition in assay [1] is 23%; in assay [2], 62%; in assay [3] it was 78%; in assay [4], 65%.

With `C[C@H]1CC[C@@H](c2nc3ccc(Cl)cc3c(=O)n2-c2cccnc2)N1c1nc(N)nc(N)c1C#N`, the values for the pIC50 in the assay with DOHH-2, in the assay on SUD4 and with SU-DHL-6 were 5.98, 6.05 and 6.11, respectively. The inhibition was found to be 56% in assay [1], 89% in assay [2], 100% in assay [3] and 89% in assay [4].

With `C[C@H]1CC[C@@H](c2nc3ccc(F)cc3c(=O)n2-c2cccnc2)N1c1nc(N)nc(N)c1C#N`, the pIC50 in the assay with DOHH-2 is 5.72; in the assay with SUD4 it was 5.91; in the assay with SU-DHL-6 it was 5.58. Also, the inhibition in assay [1] is 63%; in assay [2] it was 43%; in assay [3], 98%; in assay [4], 91%.

In the case of `C[C@H]1CC[C@@H](c2nc3c(F)cccc3c(=O)n2-c2cccnc2)N1c1nc(N)nc(N)c1C#N`, the pIC50 in the assay on DOHH-2 was 6.36; with SUD4 it was 6.21; in the assay on SU-DHL-6, 6.04. The inhibition was 30% in assay [1], 6% in assay [2], 23% in assay [3] and 52% in assay [4].

On to `C[C@H]1CC[C@@H](c2nc3cccc(-c4cncnc4)c3c(=O)n2-c2ccccc2)N1c1nc(N)nc(N)c1C#N`, for which the pIC50 in the assay on DOHH-2 is 5.71; with SUD4, 6.49; in the assay on SU-DHL-6, 6.54. The inhibition in assay [1] was determined as 26%; in assay [3] it was 49%; in assay [4] it was 57%.

As for `COc1cccc(C#Cc2cccc3nc([C@@H]4CC[C@H](C)N4c4nc(N)nc(N)c4C#N)n(-c4ccccc4)c(=O)c23)c1`, the pIC50 with DOHH-2 is 6.35; with SUD4, 6.29; in the assay with SU-DHL-6, 6.17. Also, the inhibition stood at 16% in assay [1], 9% in assay [2], 42% in assay [3] and 35% in assay [4].

In the case of `COc1cncc(-c2cccc3nc([C@@H]4CC[C@H](C)N4c4nc(N)nc(N)c4C#N)n(-c4cccnc4)c(=O)c23)c1`, the figures for the negative-log IC50 (pIC50) in the assay with DOHH-2, in the assay with SUD4 and in the assay with SU-DHL-6 were 6.09, 6.23 and 6.82, respectively. The inhibition in assay [1] was determined as 10%; in assay [2], 8%; in assay [3], 54%; in assay [4], 23%.

In the case of `C[C@H]1CC[C@@H](c2nc3cccc(-c4cnn(C(F)F)c4)c3c(=O)n2-c2ccccc2)N1c1nc(N)nc(N)c1C#N`, the pIC50 is 6.17 with DOHH-2, 6.48 in the assay on SUD4 and 6.33 in the assay on SU-DHL-6. The inhibition in assay [1] stood at 26%; in assay [3], 46%; in assay [4], 20%.

For `C[C@H]1CC[C@@H](c2nc3cccc(C#Cc4ccsc4)c3c(=O)n2-c2ccccc2)N1c1nc(N)nc(N)c1C#N`, the pIC50 was 6.19 with DOHH-2, 6.27 in the assay with SUD4 and 6.28 with SU-DHL-6. Besides, the inhibition in assay [1] is -2%; in assay [2] it was 5%; in assay [3], 15%; in assay [4] it was 49%.

Turning to `C[C@H]1CC[C@@H](c2nc3cc(F)ccc3c(=O)n2-c2cccnc2)N1c1nc(N)nc(N)c1C#N`, the figures for the pIC50 in the assay with DOHH-2, with SUD4 and in the assay with SU-DHL-6 were 6.24, 6.24 and 5.77, respectively. Further, the inhibition in assay [1] turned out to be 39%; in assay [2] it was 7%; in assay [3] it was 44%; in assay [4], 70%.

As to `C[C@H]1CC[C@@H](c2nc3cccc(C#Cc4ccccc4)c3c(=O)n2-c2ccccc2)N1c1nc(N)nc(N)c1C#N`, the pIC50 in the assay on DOHH-2 is 5.74; in the assay with SUD4, 6.17; in the assay with SU-DHL-6, 6.40. For the same molecule, the inhibition in assay [1] was 22%; in assay [2], -3%; in assay [3] it was 11%; in assay [4] it was 40%.

Regarding `C[C@H](Nc1ncnc2nc[nH]c12)c1cc2cccc(Cl)c2c(=O)n1-c1ccccc1` [DUVELISIB], the pIC50 was 6.70 in the assay on DOHH-2, 6.57 in the assay on SUD4 and 6.41 with SU-DHL-6.

As for `C[C@H]1CC[C@@H](c2nc3cccc(-c4cnn(C5CC5)c4)c3c(=O)n2-c2cccnc2)N1c1nc(N)nc(N)c1C#N`, the pIC50 was 5.67 in the assay with DOHH-2, 6.15 in the assay on SUD4 and 6.32 in the assay on SU-DHL-6. For the same molecule, the inhibition was determined as 31% in assay [1], 21% in assay [2], 63% in assay [3] and 34% in assay [4].

Consider `C[C@H]1CC[C@@H](c2nc3cccc(-c4cnn(C5CC5)c4)c3c(=O)n2-c2cccc(F)c2)N1c1nc(N)nc(N)c1C#N`, for which the negative-log IC50 (pIC50) with DOHH-2 is 6.01; in the assay on SUD4 it was 6.18; in the assay on SU-DHL-6, 6.60. Further, the inhibition in assay [1] was determined as 25%; in assay [2], 16%; in assay [3] it was 59%; in assay [4] it was 29%.

As for `C[C@H]1CC[C@@H](c2nc3cccc(C#Cc4ccccn4)c3c(=O)n2-c2ccccc2)N1c1nc(N)nc(N)c1C#N`, the pIC50 was 6.10 with DOHH-2, 6.49 with SUD4 and 6.22 with SU-DHL-6. For the same molecule, the inhibition in assay [1] came to 11%; in assay [2] it was 6%; in assay [3], 41%; in assay [4] it was 29%.

Consider `COc1ccc(C#Cc2cccc3nc([C@@H]4CC[C@H](C)N4c4nc(N)nc(N)c4C#N)n(-c4ccccc4)c(=O)c23)cc1`, for which the results for the negative logarithm of the IC50 (pIC50) with DOHH-2, in the assay on SUD4 and with SU-DHL-6 were 5.40, 5.98 and 5.98, respectively. Moreover, the inhibition in assay [1] was 25%; in assay [2] it was 43%; in assay [3], 62%; in assay [4], 83%.

Regarding `COc1ccc(-c2cccc3nc([C@@H]4CC[C@H](C)N4c4nc(N)nc(N)c4C#N)n(-c4ccccc4)c(=O)c23)cc1`, the pIC50 is 5.94 with DOHH-2, 6.05 with SUD4 and 6.15 with SU-DHL-6. Moreover, the results for the inhibition in assay [1], in assay [3] and in assay [4] were 5%, 44% and 41%, respectively.

As to `C[C@H]1CC[C@@H](c2nc3cccc(F)c3c(=O)n2-c2cccnc2)N1c1nc(N)nc(N)c1C#N`, the pIC50 in the assay on DOHH-2 is 6.25; in the assay on SUD4, 6.92; in the assay with SU-DHL-6, 6.40. For the same molecule, the inhibition in assay [1] came out at 44%; in assay [2], 7%; in assay [3] it was 36%; in assay [4] it was 67%.

Consider `Cc1ccc(C#Cc2cccc3nc([C@@H]4CC[C@H](C)N4c4nc(N)nc(N)c4C#N)n(-c4ccccc4)c(=O)c23)cc1`, for which the pIC50 with DOHH-2 is 6.17; in the assay with SUD4, 5.91; with SU-DHL-6, 5.76. Moreover, the inhibition was 35% in assay [1], 56% in assay [2], 78% in assay [3] and 80% in assay [4].

On to `Cc1cccc2nc([C@@H]3CC[C@H](C)N3c3nc(N)nc(N)c3C#N)n(-c3cccnc3)c(=O)c12`, for which the pIC50 is 6.89 with DOHH-2, 7.30 in the assay with SUD4 and 6.64 in the assay on SU-DHL-6. In addition, the inhibition was 20% in assay [1], -2% in assay [2], -3% in assay [3] and 21% in assay [4].

Turning to `COc1ccc(-c2cccc3nc([C@@H]4CC[C@H](C)N4c4nc(N)nc(N)c4C#N)n(-c4ccccc4)c(=O)c23)cn1`, the negative-log IC50 (pIC50) in the assay on DOHH-2 was 6.20; with SUD4, 6.22; with SU-DHL-6 it was 6.41. The values for the inhibition in assay [1], in assay [3] and in assay [4] were 14%, 77% and 29%, respectively.
